Experimental data taken from patent US11591342B2, “Heterocyclic compound, application thereof and pharmaceutical composition comprising same” (SUZHOU SINOVENT PHARMACEUTICALS CO., LTD., priority 2018, dated 2023).

Experiments:
Autotaxin (ATX) = Autotaxin (ATX) (Homo sapiens (Human), UniProt Q13822); experiment: ATX bioactivity assay (Amplex Red / choline oxidase / HRP fluorescence, LPC 16:0 substrate); assay type: biochemical; conditions: 30 min room temperature
Method: Effect Example 1 Bioactivity Assay
Preparation and Treatment
Stock Solution Preparation
A 10 mM DMSO stock solution was formulated for each compound. A 30 mM DMSO stock solution was formulated for positive control HA130.
The DMSO stock solutions were stored at room temperature in a desiccator for a short period of time or at −20° C. for a long period of time.
All compounds were serially 3-fold diluted in DMSO from 10 μM to the 10th concentration.
A 1000× positive control (10 mM, HA130) and a 1000× negative control (100% DMSO) were prepared.
The plates were shaken for 5 min.
Preparation of 1× Reaction Buffer:
5× reaction buffer and cold water were mixed well in a volume ratio of 1:4.
Preparation of 20 U/mL Choline Oxidase Stock Solution:
1 tube of choline oxide in a kit was dissolved in 1× reaction buffer. The aliquots were frozen at −20° C.
Preparation of 200 U/mL Horseradish Peroxidase (HRP) Stock Solution:
1 tube of HRP in a kit was dissolved in 1 mL of 1× reaction buffer. The aliquots were frozen at −20° C.
Preparation of 20 mM Amplex® Red Reagent (for Detection) Stock Solution
Amplex Red reagent and DMSO were equilibrated at room temperature. 1 tube of Amplex Red reagent in a kit was dissolved in 200 μL of DMSO.
a) 2×ATX ([…]), 2×HRP ([…]), 2× choline oxidase (0.2 U/mL) were added to 1× reaction buffer.
b) 20 μL of the reaction mixture was added to the plate (PE, 6007270) (refer to step a).
c) 40 nL of diluent was added to the plate using Echo (refer to “Preparation”).
d) 2×LPC (16:0) (60 mM) and 2× Amplex® Red ([…]) were prepared using 1× reaction buffer.
e) 20 μL of the mixture was added to the plate (refer to step d).
f) The plate was shaken for 30 s and allowed to stand at room temperature for 30 min.
g) The plate was examined using Envision, and the procedure was as follows: Excitation at 530 nm; and Emission at 590 nm.
Formula for Calculating % Inhibition (Percent Inhibition Rate) as Follows:
FLU: Fluorescence (fluorescence reading)
FLUpositive: Average fluorescence value in positive control wells (10 μM HA130) in the plate.
FLUvehicle: Average fluorescence value in negative control wells (0.1% DMSO) in the plate.
Calculation of IC50 and Dose-Response Curve:
IC50 of the compounds was calculated via a non-linear regression line (dose-variable slope) fitted using % inhibition and log of compound concentration. The software used was Graphpad 5.0. Y=Bottom+(Top−Bottom)/(1+10^((Log IC50−X)×Hill Slope))
X: log of inhibitor concentration

CYP3A4 = CYP3A4 (Homo sapiens (Human), UniProt P08684); experiment: Time-dependent inhibition of CYP3A4 (TDI assay, human liver microsomes); assay type: in vitro ADME; conditions: for CYP3A4 TDI % @ 10 μM: human liver microsomes, Midazolam substrate, 30 min with NADPH vs 0 min; for time-dependent inhibition on CYP3A4 (conclusion): conclusion drawn from Table 3, 10 μM
Chain of CYP3A4 (P08684 whole entry): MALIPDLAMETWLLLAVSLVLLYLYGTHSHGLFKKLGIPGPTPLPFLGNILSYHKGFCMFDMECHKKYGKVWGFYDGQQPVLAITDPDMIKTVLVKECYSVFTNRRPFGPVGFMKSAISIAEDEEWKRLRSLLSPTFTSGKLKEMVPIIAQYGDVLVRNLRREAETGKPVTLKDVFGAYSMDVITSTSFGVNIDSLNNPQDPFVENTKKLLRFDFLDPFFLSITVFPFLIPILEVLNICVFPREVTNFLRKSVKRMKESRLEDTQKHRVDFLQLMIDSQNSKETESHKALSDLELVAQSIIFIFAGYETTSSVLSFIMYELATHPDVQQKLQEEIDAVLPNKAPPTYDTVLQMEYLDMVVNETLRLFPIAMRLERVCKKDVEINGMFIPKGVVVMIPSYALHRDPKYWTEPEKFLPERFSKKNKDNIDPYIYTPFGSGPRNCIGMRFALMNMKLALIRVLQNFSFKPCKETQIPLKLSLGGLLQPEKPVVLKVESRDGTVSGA
Method: Effect Example 3. Time-Dependent Inhibition of CYP3A4
1. Preheating potassium phosphate buffer (K-buffer), pH 7.4: 100 mM potassium phosphate buffer (K-buffer) was prepared by mixing 9.5 mL of solution A with 40.5 mL of solution B, diluting to 500 mL with ultrapure water, and then adjusting to pH 7.4 with KOH or H3PO4, wherein the solution A (1M potassium dihydrogenphosphate) was prepared by dissolving 136.5 g of potassium dihydrogenphosphate in […] of ultrapure water.
2. Preparation of human liver microsome suspension (1.3 mg/mL, 1.3×, stock: 20 mg/mL): 100 μL of human liver microsome suspension (20 mg/mL) was added into […] of K-buffer.
3. Preparation of NADPH solution (4.167 mg/mL, 5 mM): 8.3 mg of NADPH was added into 2 mL of buffer.
4. Preparation of substrate solution (1.5× final): 1.5 μL of 10 mM Midazolam was added to 998.5 μL of K-buffer to yield the substrate mixture.
5. Preparation of 100× test compound, reference and blank control solutions: 3 μL of 10 mM stock solution of test compound was added to 27 μL of ACN; 3 μL of positive control stock solution was added to 27 μL of ACN; and 3 μL of DMSO was added to 27 μL of ACN to serve as blank control.
6. Primary preheating system: An NADPH-free system for 0 min incubation: 78 μL of 1.3× human liver microsome solution (step 2) was mixed with 1 μL of the 100× stock solutions of positive control, test compound, or blank control (step 5); A system containing NADPH for 30 min incubation: 78 μL of 1.3× human liver microsome solution (step 2) was mixed with 1 μL of the 100× stock solutions of positive control, test compound, or blank control (step 5).
7. Secondary preheating system: 150 μL of the substrate solution prepared in step 4 was added into a deep well plate together with the NADPH solution from step 3
8. The samples were preheated for 10 min in a 37° C. water bath.
9. Reaction procedure: (1) reaction for 0 min: 21 μL of K-buffer was added to the primary preheating system and mixed well without incubation; 20 μL of the mixture was immediately transferred into the plate of the secondary preheating system; after mixing, the secondary system was incubated in a 37° C. water bath for 15 min, and 60 μL of the reaction mixture was added into 120 μL of acetonitrile containing internal standard to terminate the reaction; and (2) reaction for 30 min: 21 μL of NADPH was added into the primary preheating system for a 30-min incubation after mixing; 20 μL of the mixture was added into the secondary preheating system prior to mixing; the mixture was incubated in a 37° C. water bath for 15 min, and 60 μL of the reaction mixture was added into 120 μL of acetonitrile containing internal standard to terminate the reaction.
10. After termination, the samples were shaken on a shaker at 600 rpm for 10 min and centrifuged at 5594 g for 15 min prior to LC-MS/MS analysis.

Structure (SMILES)	IC50 (Autotaxin (ATX))	CYP3A4 TDI % @ 10 μM (CYP3A4)	time-dependent inhibition on CYP3A4 (conclusion) (CYP3A4)
CCn1nc2c(F)cc(N3CCN(CC(=O)N4CC(O)C4)CC3)cc2c1N(C)c1ccc(C#N)c(-c2ccc(F)cc2)n1 [Compound S-0030, 6-((2-ethyl-7-fluoro-5-(4-(2-(3-hydroxyazetidin-1-yl)-2-oxoethyl)piperazin-1-yl)-2H-indazol-3-yl)(methyl)amino)-2-(4-fluorophenyl)nicotinonitrile]	407 nM	–	–
CCc1nn2ccc(N3CCN(CC(=O)N4CC(O)C4)CC3)cc2c1N(C)c1nc(-c2ccc(F)cc2)c(C#N)s1 [Compound S-0040, 2-((2-ethyl-5-(4-(2-(3-hydroxyazetidin-1-yl)-2-oxoethyl)piperazin-1-yl)pyrazolo[1,5-a]pyridin-3-yl)(methyl)amino)-4-(4-fluorophenyl)thiazole-5-carbonitrile]	767 nM	–	–
CCc1nn2ccc(N3CCN(CC(=O)N4CC(O)C4)CC3)nc2c1N(C)c1nc(-c2ccc(F)cc2)c(C#N)s1 [Compound S-0041, 2-((2-ethyl-5-(4-(2-(3-hydroxyazetidin-1-yl)-2-oxoethyl)piperazin-1-yl)pyrazolo[1,5-a]pyrimidin-3-yl)(methyl)amino)-4-(4-fluorophenyl)thiazole-5-carbonitrile]	–	−4.00%	no time-dependent inhibition on CYP3A4
CCn1nc2ncc(N3CCN(CC(=O)N4CC(O)C4)CC3)cc2c1N(C)c1nc(-c2ccc(F)cc2)c(C#N)s1 [Compound S-0043, 2-((2-ethyl-5-(4-(2-(3-hydroxyazetidin-1-yl)-2-oxoethyl)piperazin-1-yl)-2H-pyrazolo[3,4-b]pyridin-3-yl)(methyl)amino)-4-(4-fluorophenyl)thiazole-5-carbonitrile]	–	12.38%	no time-dependent inhibition on CYP3A4
CCn1nc2cnc(N3CCN(CC(=O)N4CC(O)C4)CC3)cc2c1N(C)c1nc(-c2ccc(F)cc2)c(C#N)s1 [Compound S-0044, 2-((2-ethyl-5-(4-(2-(3-hydroxyazetidin-1-yl)-2-oxoethyl)piperazin-1-yl)-2H-pyrazolo[3,4-c]pyridin-3-yl)(methyl)amino)-4-(4-fluorophenyl) thiazole-5-carbonitrile]	–	15.3%	no time-dependent inhibition on CYP3A4
CCc1nn2c(C)cc(N3CCN(CC(=O)N4CC(O)C4)CC3)nc2c1N(C)c1nc(-c2ccc(F)c(F)c2)c(C#N)s1 [Compound S-0068, 4-(3,4-difluorophenyl)-2-((2-ethyl-5-(4-(2-(3-hydroxyazetidin-1-yl)-2-oxoethyl)piperazin-1-yl)-7-methylpyrazolo[1,5-a]pyrimidin-3-yl)(methyl)amino) thiazole-5-carbonitrile]	107 nM	–	–
CCc1nn2c(C)cc(N3CCN(CC(=O)N4CC(O)C4)CC3)nc2c1N(CC)c1nc(-c2ccc(F)cc2)c(C#N)s1 [Compound S-0069, 2-(ethyl(2-ethyl-5-(4-(2-(3-hydroxyazetidin-1-yl)-2-oxoethyl)piperazine-1-yl)-7-methylpyrazolo[1,5-a]pyrimidin-3-yl)amino)-4-(4-fluorophenyl) thiazole-5-carbonitrile]	43 nM	–	–
CCc1nn2c(C)cc(N3CCN(CC(=O)N4CC(O)C4)C[C@H]3C)nc2c1N(C)c1nc(-c2ccc(F)cc2)c(C#N)s1 [Compound S-0070, (R)-2-((2-ethyl-5-(4-(2-(3-hydroxyazetidin-1-yl)-2-oxoethyl)-2-methylpiperazine-1-yl)-7-methylpyrazolo[1,5-a]pyrimidin-3-yl)(methyl)amino)-4-(4-fluorophenyl)thiazole-5-carbonitrile]	36 nM	–	–
CCc1nn2c(C)cc(N3CCN(CC(=O)N4CC(O)C4)C[C@@H]3C)nc2c1N(C)c1nc(-c2ccc(F)cc2)c(C#N)s1 [Compound S-0071, (S)-2-((2-ethyl-5-(4-(2-(3-hydroxyazetidin-1-yl)-2-oxoethyl)-2-methylpiperazin-1-yl)-7-methylpyrazolo[1,5-a]pyrimidin-3-yl)(methyl)amino)-4-(4-fluorophenyl)thiazole-5-carbonitrile]	46 nM	–	–
CCc1nn2c(C)cc(N3CCN(CC(=O)N4CC(O)C4)[C@H](C)C3)nc2c1N(C)c1nc(-c2ccc(F)cc2)c(C#N)s1 [Compound S-0074, (R)-2-((2-ethyl-5-(4-(2-(3-hydroxyazetidin-1-yl)-2-oxoethyl)-3-methylpiperazin-1-yl)-7-methylpyrazolo[1,5-a]pyrimidin-3-yl)(methyl)amino)-4-(4-fluorophenyl)thiazole-5-carbonitrile]	207 nM	–	–
CCc1nn2c(C)cc(N3CCN(CC(=O)N4CC(O)C4)[C@@H](C)C3)nc2c1N(C)c1nc(-c2ccc(F)cc2)c(C#N)s1 [Compound S-0075, (S)-2-((2-ethyl-5-(4-(2-(3-hydroxyazetidin-1-yl)-2-oxoethyl)-3-methylpiperazin-1-yl)-7-methylpyrazolo[1,5-a]pyrimidin-3-yl)(methyl)amino)-4-(4-fluorophenyl)thiazole-5-carbonitrile]	88 nM	–	–
CCc1nn2ccc(N3CCN(CC(=O)N4CC(O)C4)CC3)nc2c1N(CC)c1nc(-c2ccc(F)cc2)c(C#N)s1 [Compound S-0082, 2-(ethyl(2-ethyl-5-(4-(2-(3-hydroxyazetidin-1-yl)-2-oxoethyl)piperazin-1-yl)pyrazolo[1,5-a]pyrimidin-3-yl)amino)-4-(4-fluorophenyl)thiazole-5-carbonitrile]	20 nM	–	–
CCc1nn2ccc(N3CCN(CC(=O)N4CC(O)C4)C(=O)C3)nc2c1N(C)c1nc(-c2ccc(F)cc2)c(C#N)s1 [Compound S-0104CP, 2-((2-ethyl-5-(4-(2-(3-hydroxyazetidin-1-yl)-2-oxoethyl)-3-oxopiperazin-1-yl)pyrazolo[1,5-a]pyrimidin-3-yl)(methyl)amino)-4-(4-fluorophenyl)thiazole-5-carbonitrile]	256 nM	–	–
CCc1nn2ccc(N3CCN(CC(=O)N4CC(C)(O)C4)CC3)nc2c1N(C)c1nc(-c2ccc(F)cc2)c(C#N)s1 [Compound S-0120, 2-((2-ethyl-5-(4-(2-(3-hydroxy-3-methylazetidin-1-yl)-2-oxoethyl)piperazin-1-yl)pyrazolo[1,5-a]pyrimidin-3-yl)(methyl)amino)-4-(4-fluorophenyl)thiazole-5-carbonitrile]	41 nM	–	–
